Experimental data reported in paper PMC8156151 (The European Respiratory Journal, 2021).

Columns and labels:
Type in all cases: in vivo, human
[1] = tested on: BAL cells; assay: BAL cell classification and quantification (flow cytometry); settings: any dose groups
Procedure: Dickinson, NJ, USA). Data were analysed using FlowJo software (Becton Dickinson, NJ, […]
identify cell populations based on surface marker expression. The antibodies used were Gal-3- […]
Biolegend except Gal-3-FITC which was from Cedarlane. Macrophages were identified as having high side scatter properties and HLA-DR positivity. Gal-3 expression (mean fluorescence intensity, MFI) was determined from the macrophage gate. Macrophage subsets […]
Plasma pharmacodynamic biomarkers
Secreted], CCL18 [pulmonary and activation-regulated chemokine], CCL26 [eotaxin], […]
A disease relevance score was
(supplementary table S2).
BAL cell classification and quantification
CD163 and CD206 expression (supplemental figure S2). […]
following treatment with TD139 in the high dose group.

[2] = tested on: CCL18 (PARC); assay: Plasma biomarker CCL18; settings: IPF patients
Procedure: (§1) All patients, investigators, sites and study sponsor personnel were blinded to the study group assignments throughout the study. Patients underwent study-specific assessments on days 2, 3, 7, 14 and 15, and a post-study assessment was carried out 26–30 days after the last day of the study period. Assessments included vital signs (supine blood pressure, pulse, oxygen saturation, oral temperature and respiratory rate), spirometry, 12-lead ECG, physical examination, laboratory safety screen (haematology, biochemistry, urinalysis and urinary drugs of abuse screen) and blood sampling for PK measurements. All adverse events and concomitant medications were recorded from the time of the screening visit until the post-study follow-up visit. BAL was performed at day −1 (24 h before the first dose) and at day 14 (2 h after the last dose). The BAL procedure was performed as per international guidelines. Briefly, 240 mL of 0.9% saline at room temperature was instilled in 40 mL aliquots into the right middle lobe and aspirated by suction after each aliquot.
(§2) BAL cells were separated from fluid by centrifugation, and cells were collected, stained with antibodies (supplementary material) and then fixed before analysis using a LSR Fortessa flow cytometer (Becton Dickinson, Franklin Lakes, NJ, USA). Data were analysed using FlowJo software (Tree Star, Ashland, OR, USA). Macrophages were identified as having high side scatter properties and human leukocyte antigen-DR positivity. Gal-3 expression (mean fluorescence intensity) was determined from the macrophage gate (supplementary figures S1 and S2). […] Samples were analysed by magnetic Luminex assay (R&D Systems, Minneapolis, MN, USA) or ELISA.
(§3) For part 2 of the study, placebos were combined from the three dose-specific cohorts into a pooled control group (n=9). For alveolar macrophage Gal-3 expression and the plasma biomarkers, ANCOVA was performed for percentage of baseline ((day 14/day 1)×100). The ANCOVA model included effects for treatment group and baseline (day 1) value. […] An additional analysis including dose as a continuous covariate was also performed. The Pearson correlation coefficient (r) and associated p-value were calculated for percentage of baseline and day 14 values between plasma biomarkers and alveolar macrophage Gal-3 expression. […] The analysis is exploratory and there was no pre-planned adjustment for multiple testing; the study was not powered for this. Alveolar macrophage Gal-3 expression was considered the primary exploratory analysis with the pre-selected biomarkers secondary. A Bonferroni correction for multiple testing of the secondary end-points comparing the 10 mg group with placebo gives a critical value of 0.0063. Data are presented as the difference in least square means with 95% confidence interval and p-value unless otherwise stated. All analyses were performed using SAS version 9.4 (SAS Institute, Cary, NC, USA). […]

[3] = tested on: YKL-40 (CHI3L1); assay: Plasma biomarker YKL-40; settings: for YKL-40 (CHI3L1) raw data, Mean (SD) / YKL-40 (CHI3L1) least square means % baseline±SEM: IPF patients
Procedure: as §1, §2, §3

[4] = tested on: HGF; assay: Plasma biomarker HGF; settings: for HGF raw data, Mean (SD) / HGF least square means % baseline±SEM: IPF patients
Procedure: as §1, §2, §3

[5] = tested on: CCL2 (MCP-1); assay: Plasma biomarker CCL2; settings: for CCL2 (MCP-1) raw data, Mean (SD) / CCL2 (MCP-1) least square means % baseline±SEM: IPF patients
Procedure: as §1, §2, §3

[6] = tested on: CCL5 (RANTES); assay: Plasma biomarker CCL5; settings: for CCL5 (RANTES) raw data, Mean (SD) / CCL5 (RANTES) least square means % baseline±SEM: IPF patients
Procedure: as §1, §2, §3

[7] = tested on: MIF; assay: Plasma biomarker MIF; settings: for MIF raw data, Mean (SD): IPF patients
Procedure: as §1, §2, §3

SMILES: OC[C@H]1O[C@@H](S[C@@H]2O[C@H](CO)[C@H](O)[C@H](n3cc(-c4cccc(F)c4)nn3)[C@H]2O)[C@H](O)[C@@H](n2cc(-c3cccc(F)c3)nn2)[C@H]1O [TD139]
- abundance or frequencies of CD4+ or CD8+ T cells, Tregs, NK, NKT, B cells, neutrophils or monocytes in BAL [1]: no change in the abundance or frequencies
- CCL18 (PARC) raw data, Mean (SD) ([2]; Day 14, 0.3 mg): 79733.8 (25166.88) pg/ml
- CCL18 (PARC) raw data, Mean (SD) ([2]; Day 14, 3 mg): 73022.7 (33487.12) pg/ml
- CCL18 (PARC) raw data, Mean (SD) ([2]; Day 14, 10 mg): 53456.8 (11339.99) pg/ml
- CCL18 (PARC) least square means % baseline±SEM ([2]; day 14, 0.3 mg once daily): 89.6±11.8 % baseline
- CCL18 (PARC) least square means % baseline±SEM ([2]; day 14, 3 mg once daily): 98.9±12.0 % baseline
- CCL18 (PARC) least square means % baseline±SEM ([2]; day 14, 10 mg once daily): 74.6±11.8 % baseline
- YKL-40 (CHI3L1) difference in least square means % baseline (95% CI) ([3]; 10 mg vs placebo, ANCOVA): −28.9 (−55.9– −1.9) % baseline
- YKL-40 (CHI3L1) raw data, Mean (SD) ([3]; Day 14, 0.3 mg): 45140.2 (34041.85) pg/ml
- YKL-40 (CHI3L1) raw data, Mean (SD) ([3]; Day 14, 3 mg): 146819.5 (40114.19) pg/ml
- YKL-40 (CHI3L1) raw data, Mean (SD) ([3]; Day 14, 10 mg): 79975.5 (38590.77) pg/ml
- YKL-40 (CHI3L1) least square means % baseline±SEM ([3]; day 14, 0.3 mg once daily): 84.1±12.5 % baseline
- YKL-40 (CHI3L1) least square means % baseline±SEM ([3]; day 14, 3 mg once daily): 50.2±18.6 % baseline
- YKL-40 (CHI3L1) least square means % baseline±SEM ([3]; day 14, 10 mg once daily): 51.6±10.4 % baseline
- HGF difference in least square means % baseline (95% CI) ([4]; 10 mg vs placebo, ANCOVA): −37.2 (−85.5–11.2) % baseline
- HGF raw data, Mean (SD) ([4]; Day 14, 0.3 mg): 109.8 (23.24) pg/ml
- HGF raw data, Mean (SD) ([4]; Day 14, 3 mg): 159.1 (110.2) pg/ml
- HGF raw data, Mean (SD) ([4]; Day 14, 10 mg): 131.2 (44.47) pg/ml
- HGF least square means % baseline±SEM ([4]; day 14, 0.3 mg once daily): 100.3±17.5 % baseline
- HGF least square means % baseline±SEM ([4]; day 14, 3 mg once daily): 103.2±16.9 % baseline
- HGF least square means % baseline±SEM ([4]; day 14, 10 mg once daily): 73.2±18.8 % baseline
- CCL2 (MCP-1) difference in least square means % baseline (95% CI) ([5]; 10 mg vs placebo, ANCOVA): −71.7 (−187.1–43.7) % baseline
- CCL2 (MCP-1) raw data, Mean (SD) ([5]; Day 14, 0.3 mg): 133.8 (15.06) pg/ml
- CCL2 (MCP-1) raw data, Mean (SD) ([5]; Day 14, 3 mg): 137.6 (63.21) pg/ml
- CCL2 (MCP-1) raw data, Mean (SD) ([5]; Day 14, 10 mg): 270.3 (348.45) pg/ml
- CCL2 (MCP-1) least square means % baseline±SEM ([5]; day 14, 0.3 mg once daily): 126.7±39.3 % baseline
- CCL2 (MCP-1) least square means % baseline±SEM ([5]; day 14, 3 mg once daily): 93.7±38.7 % baseline
- CCL2 (MCP-1) least square means % baseline±SEM ([5]; day 14, 10 mg once daily): 89.4±43.5 % baseline
- CCL5 (RANTES) difference in least square means % baseline (95% CI) ([6]; 10 mg vs placebo, ANCOVA): −54.1 (−147–38.8) % baseline
- CCL5 (RANTES) raw data, Mean (SD) ([6]; Day 14, 0.3 mg): 47658.1 (27017.8) pg/ml
- CCL5 (RANTES) raw data, Mean (SD) ([6]; Day 14, 3 mg): 75675.6 (92820.57) pg/ml
- CCL5 (RANTES) raw data, Mean (SD) ([6]; Day 14, 10 mg): 33994.2 (29435.9) pg/ml
- CCL5 (RANTES) least square means % baseline±SEM ([6]; day 14, 0.3 mg once daily): 62.3±37.1 % baseline
- CCL5 (RANTES) least square means % baseline±SEM ([6]; day 14, 3 mg once daily): 115.1±35.1 % baseline
- CCL5 (RANTES) least square means % baseline±SEM ([6]; day 14, 10 mg once daily): 75.8±35.8 % baseline
- MIF difference in least square means % baseline (95% CI) ([7]; 10 mg vs placebo, ANCOVA): −120.2 (−339.2–98.9) % baseline
- MIF raw data, Mean (SD) ([7]; Day 14, 0.3 mg): 65871.3 (42284.53) pg/ml
- MIF raw data, Mean (SD) ([7]; Day 14, 3 mg): 38884 (35236.82) pg/ml
